In patent US20250040554A1, “NEW USES OF PHENMEDIPHAM AND HERBICIDAL COMBINATIONS COMPRISING PHENMEDIPHAM” (BAYER AKTIENGESELLSCHAFT, priority 2021, published 2025):

Tests used:
Format in all cases: in vivo
[1] = test system: EPHHL=Euphorbia heterophylla; assay: Weed control field trial EPHHL
Excerpt: (§1) The respective (combinations of) materials were applied to weed plants in the greenhouse or in the field at the respective growth stage indicated hereinafter for the different weed species mentioned below. The respective (combinations of) active ingredients were also applied to corn, cotton and soybean crop plants, and the selectivity (damage) in these crop plants rated (assessed).
(§2) Visual scoring of the damage to the trial plants took place after the time mentioned in the respective Table—indicated in number of Days After Application (DAA). Damage and development of all above-ground parts of the respective plants was recorded. Visual rating was done on a percentage scale in relation to the untreated control (100%=all plants dead; 50%=green plant biomass reduced by 50%, and 0%=no discernible difference=like control plot).
(§3) The trials in the greenhouse were sprayed with an application volume of 300 L/ha with an automated track sprayer. The plots in the field were sprayed with an application volume of 140 L/ha with a hand held spray boom.
(§4) wherein • A, B=respective value in percent of active ingredient A at a dose rate of a g/ha, ingredient B at a dose rate of b g/ha • E^C=Expected value according to Colby (S. R. Colby; Weeds 15 (1967), 20-22) in % at a dose rate of a+b, each in g/ha • Δ=Difference (in %) between measured value E and expected value E^C (%) (measured value minus expected value)
(§5) The growth stages of the different weed species are indicated according to the BBCH monograph “Growth stages of mono- and dicotyledonous plants”, 2nd edition, 2001, ed. Uwe Meier, Federal Biological Research Centre for Agriculture and Forestry (Biologische Bundesanstalt für Land und Forstwirtschaft).
(§6) After the harmful plants had emerged, they were treated, at the respective growth stage indicated, with the respective materials as indicated at a water application rate of 140 L/ha.
(§7) After the treatment (21 or 35 days after application of the respective material), the herbicidal activity of respective material was scored visually at the same time by comparing the differently treated plots with the untreated control plots. The score figures of the different plots were averaged.
(§8) The dose rates of herbicidal ingredients used in each case are indicated for the respective active ingredient and refer to the amount of active ingredient per hectare (g/ha).
(§9) The weed control activity of different (combinations of) herbicidal active ingredients was investigated in field trials for the following weed species: • AMAVI=Amaranthus viridis • IPOAO=Ipomoea aristolochiaefolia • EPHHL=Euphorbia heterophylla • BIDPI=Bidens pilosa • BRADC=Brachiaria decumbens • ELEIN=Eleusine indica • CCHEC=Cenchrus echinatus
(§10) The growth stage of AMAVI was BBCH 13, the growth stage of IPOAO was BBCH 15, the growth stage of EPHHL was BBCH 13, the growth stage of BIDPI was BBCH 14, the growth stage of BRADC was BBCH 23, the growth stage of ELEIN was BBCH 11 and the growth stage of CCHEC was BBCH 12 at the time of application of the respective material.
(§11) Phenmedipham and Mesotrione were applied at varying application rates (Dose Rate) to the different species of weed plants. The results are shown in Tables 3a to 3e as the % control when assessed 21 and 35 days after application (DAA), respectively.
(§12) In all the trials of Tables 3a to 3e Mero® (rapeseed oil methyl ester) was added to the respective spray mixture in an amount corresponding to 1 L/ha for PMP, 1 L/ha for MST, and 2 L/ha for mixtures of PMP+MST.

[2] = test system: non-traited soybean (Glycine max, GLXMA); assay: Field selectivity trial soybean; details: 35 DAA
Excerpt: as §1, §2, §3
Phenmedipham and combinations of phenmedipham and mesotrione were applied at varying application rates (Dose Rate) to the crop plants of non-traited soybean (Glycine max, GLXMA) and corn (Zea mays, ZEAMX). The results are shown in Table 5 as the % damage when assessed 35 days after application (DAA), respectively.
In all the selectivity trials of Table 5 the adjuvant Mero® (rapeseed oil methyl ester) was added to the respective spray mixture in an amount corresponding to 1 L/ha for PMP, 1 L/ha for MST, and 2 L/ha for mixtures of PMP+MST.
The herbicidal effects observed for the herbicide(s) are indicated in % activity against the respective weed. The % damage (injury) indicated refers to the maximum damage observed.

[3] = test system: AMARE=Amaranthus retroflexus; assay: Weed control field trial AMARE; details: 15 DAA
Excerpt: as §1, §2, §4
(§13) After the harmful plants had emerged, they were treated, at the respective growth stage indicated, with the respective materials as indicated at a water application rate of 187 L/ha.
(§14) After the treatment (15 days after the treatment), the herbicidal activity of respective material was scored visually at the same time by comparing the differently treated plots with the untreated control plots. The score figures of the different plots were averaged.
as §8
(§15) The weed control activity of different (combinations of) herbicidal active ingredients was investigated in field trials for the following weed species: • AMARE=Amaranthus retroflexus • KCHSC=Kochia scoparia • PANRA=Panicum ramosum
(§16) The growth stage of AMARE was BBCH 19, the growth stage of KCHSC was BBCH 19 and the growth stage of PANRA was BBCH 22 at the time of application of the respective material.
(§17) Phenmedipham and the respective aroylcyclohexanedione herbicide were applied at varying application rates (Dose Rate) to the different species of weed plants. The results are shown in Tables 4a to 4d as the % control when assessed 15 days after application (DAA), respectively.
(§18) In all the trials of Tables 4a to 4d Mero® (rapeseed oil methyl ester) was added to the respective spray mixture in an amount corresponding to 1 L/ha for PMP, 1 L/ha for the respective aroylcyclohexanedione herbicide, and 2 L/ha for mixtures of PMP+the respective aroylcyclohexanedione herbicide.

KCHSC=Kochia scoparia = assay: Weed control field trial KCHSC; details: 15 DAA
Excerpt: as §1, §2, §4, §13, §14, §8, §15, §16, §17, §18

ELEIN=Eleusine indica = assay: Weed control field trial ELEIN
Excerpt: as §1, §2, §3, §4, §5, §6, §7, §8, §9, §10, §11, §12

CCHEC=Cenchrus echinatus = assay: Weed control field trial CCHEC
Excerpt: as §1, §2, §3, §4, §5, §6, §7, §8, §9, §10, §11, §12

[4] = test system: IPOAO=Ipomoea aristolochiaefolia; assay: Weed control field trial IPOAO
Excerpt: as §1, §2, §3, §4, §5, §6, §7, §8, §9, §10, §11, §12

## CS(=O)(=O)c1ccc(C(=O)C2C(=O)CCCC2=O)c([N+](=O)[O-])c1 [MST, 2-[4-(methylsulfonyl)-2-nitrobenzoyl]cyclohexane-1,3-dione]
[1]; 25 g/ha, 21 DAA
  % control EPHHL: 0%
[1]; 25 g/ha, 35 DAA
  % control EPHHL: 0%
[1]; 50 g/ha, 21 DAA
  % control EPHHL: 17%
[1]; 50 g/ha, 35 DAA
  % control EPHHL: 0%
[2]; 25 g/ha
  maximum damage GLXMA: 12%
[2]; 50 g/ha
  maximum damage GLXMA: 29%
[3]; 20 g/ha
  % control AMARE: 25%
[3]; 40 g/ha
  % control AMARE: 30%
[3]; 60 g/ha
  % control AMARE: 40%
[3]; 80 g/ha
  % control AMARE: 45%
[3]; 100 g/ha
  % control AMARE: 50%
KCHSC=Kochia scoparia; 20 g/ha
  % control KCHSC: 40%
KCHSC=Kochia scoparia; 40 g/ha
  % control KCHSC: 45%
KCHSC=Kochia scoparia; 60 g/ha
  % control KCHSC: 45%
KCHSC=Kochia scoparia; 80 g/ha
  % control KCHSC: 45%
KCHSC=Kochia scoparia; 100 g/ha
  % control KCHSC: 50%
ELEIN=Eleusine indica; 25 g/ha, 21 DAA
  % control ELEIN: 0%
ELEIN=Eleusine indica; 25 g/ha, 35 DAA
  % control ELEIN: 0%
ELEIN=Eleusine indica; 50 g/ha, 21 DAA
  % control ELEIN: 17%
ELEIN=Eleusine indica; 50 g/ha, 35 DAA
  % control ELEIN: 17%
CCHEC=Cenchrus echinatus; 25 g/ha, 35 DAA
  % control CCHEC: 0%
CCHEC=Cenchrus echinatus; 50 g/ha, 21 DAA
  % control CCHEC: 17%
CCHEC=Cenchrus echinatus; 50 g/ha, 35 DAA
  % control CCHEC: 0%
[4]; 25 g/ha, 21 DAA
  % control IPOAO: 0%
[4]; 25 g/ha, 35 DAA
  % control IPOAO: 0%
[4]; 50 g/ha, 21 DAA
  % control IPOAO: 17%
[4]; 50 g/ha, 35 DAA
  % control IPOAO: 0%

## COC(=O)Nc1cccc(OC(=O)Nc2cccc(C)c2)c1 [PMP, 3-[(methoxyformyl)amino]phenyl (3-methylphenyl)carbamate]
[1]; 75 g/ha, 21 DAA
  % control EPHHL: 0%
[1]; 75 g/ha, 35 DAA
  % control EPHHL: 0%
[1]; 100 g/ha, 21 DAA
  % control EPHHL: 0%
[1]; 100 g/ha, 35 DAA
  % control EPHHL: 0%
[1]; 125 g/ha, 21 DAA
  % control EPHHL: 0%
[1]; 125 g/ha, 35 DAA
  % control EPHHL: 0%
[1]; 250 g/ha, 21 DAA
  % control EPHHL: 0%
[1]; 250 g/ha, 35 DAA
  % control EPHHL: 0%
[2]; 75 g/ha
  maximum damage GLXMA: 10%
[2]; 125 g/ha
  maximum damage GLXMA: 15%
[2]; 250 g/ha
  maximum damage GLXMA: 14%
[3]; 150 g/ha
  % control AMARE: 0%
[3]; 300 g/ha
  % control AMARE: 5%
KCHSC=Kochia scoparia; 150 g/ha
  % control KCHSC: 0%
KCHSC=Kochia scoparia; 300 g/ha
  % control KCHSC: 5%
ELEIN=Eleusine indica; 75 g/ha, 21 DAA
  % control ELEIN: 0%
ELEIN=Eleusine indica; 75 g/ha, 35 DAA
  % control ELEIN: 0%
ELEIN=Eleusine indica; 100 g/ha, 21 DAA
  % control ELEIN: 0%
ELEIN=Eleusine indica; 100 g/ha, 35 DAA
  % control ELEIN: 0%
ELEIN=Eleusine indica; 125 g/ha, 21 DAA
  % control ELEIN: 0%
ELEIN=Eleusine indica; 125 g/ha, 35 DAA
  % control ELEIN: 0%
ELEIN=Eleusine indica; 250 g/ha, 21 DAA
  % control ELEIN: 0%
ELEIN=Eleusine indica; 250 g/ha, 35 DAA
  % control ELEIN: 0%
CCHEC=Cenchrus echinatus; 75 g/ha, 21 DAA
  % control CCHEC: 0%
CCHEC=Cenchrus echinatus; 75 g/ha, 35 DAA
  % control CCHEC: 0%
CCHEC=Cenchrus echinatus; 100 g/ha, 21 DAA
  % control CCHEC: 0%
CCHEC=Cenchrus echinatus; 100 g/ha, 35 DAA
  % control CCHEC: 0%
CCHEC=Cenchrus echinatus; 125 g/ha, 21 DAA
  % control CCHEC: 0%
CCHEC=Cenchrus echinatus; 125 g/ha, 35 DAA
  % control CCHEC: 0%
CCHEC=Cenchrus echinatus; 250 g/ha, 21 DAA
  % control CCHEC: 0%
CCHEC=Cenchrus echinatus; 250 g/ha, 35 DAA
  % control CCHEC: 0%
[4]; 75 g/ha, 21 DAA
  % control IPOAO: 0%
[4]; 75 g/ha, 35 DAA
  % control IPOAO: 0%
[4]; 100 g/ha, 21 DAA
  % control IPOAO: 0%
[4]; 100 g/ha, 35 DAA
  % control IPOAO: 0%
[4]; 125 g/ha, 21 DAA
  % control IPOAO: 0%
[4]; 125 g/ha, 35 DAA
  % control IPOAO: 0%
[4]; 250 g/ha, 21 DAA
  % control IPOAO: 0%
[4]; 250 g/ha, 35 DAA
  % control IPOAO: 0%
